Assay results from patent US20190022152A1, “MICROBIOME RESPONSE TO AGENTS” (Yeda Research and Development Co., Ltd., priority 2014, published 2019).

Experiments:
fecal microbiota = test system: fecal microbiota
Procedure: (§1) Frozen fecal samples were processed for DNA isolation using the MoBio PowerSoil kit according to the manufacturer's instructions. 1 ng of the purified fecal DNA was used for PCR amplification and sequencing of the bacterial 16S rRNA gene. ˜365 bp Amplicons spanning the variable region 2 (V2) of the 16S rRNA gene were generated by using the following barcoded primers: Fwd 5′-[…]-3′ (SEQ ID NO: 3), Rev 5′-[…]-3′ (SEQ ID NO: 4). […] Reads were then processed using the QIIME (Quantitative Insights Into Microbial Ecology) analysis pipeline as described, version 1.8. Paired-end joined sequences were grouped into operational taxonomic units (OTUs) using the UCLUST algorithm and the greengenes database. Sequences with distance-based similarity of 97% or greater over median sequence length of 353 bp were assigned to the same OTU. Samples were grouped according to the treatment. Analysis was performed at each taxonomical level (Phylum-genus+OTU level) separately. For each taxon, G test was performed between the different groups. P-values were FDR corrected for multiple hypothesis testing.

[1] = test system: fecal matter from naïve mice; assay: In vitro anaerobic culturing of fecal matter with saccharin; type: cell-based; settings: anaerobic culture with saccharin 5 mgml^−1, day 9
Procedure: (§2) pooled fecal matter from naïve adult WT C57Bl/6 male mice was resuspended in 5 ml PBS in an anaerobic chamber (Coy Laboratory Products, 75% N2, 20% CO2, 5% H2), vortexed for 3 minutes and allowed to settle by gravity for 2 minutes. […] were added to a tube containing Chopped Meat Carbohydrate Broth, PR II (BD) and […] of a 5 mgml-1 saccharin solution or an equal volume of PBS. Every 3 days, 500 ml of culture were diluted to fresh medium containing saccharin or PBS. After 9 days, cultures were used for inoculation of germ-free mice.
as §1, with “1 ng of the purified fecal DNA was used for PCR amplification and sequencing of the bacterial 16S rRNA gene. ˜365 bp Amplicons spanning” left out, “Analysis was performed at each taxonomical level (Phylum-genus+OTU level) separately. For each taxon, G test was performed between the different groups.” left out

mice = assay: Oral glucose tolerance test in mice drinking non-caloric artificial sweeteners (NAS); type: in vivo
Text: (§3) C57Bl/6 WT adult male mice were randomly assigned (without blinding) to treatment groups and were given commercial artificial sweeteners (saccharin-, sucralose- or aspartame-based) or pure saccharin (Sigma Aldrich) in drinking water and fed a high-fat (HFD D12492, 60% Kcal from fat, Research Diets) or standard polysaccharide normal chow (NC) diet (Harlan-Teklad). Compared groups were always fed from the same batch of diet. For antibiotic treatment, mice were given a combination of ciprofloxacin (0.2 gl^−1) and metronidazole ([…]) or vancomycin (0.5 gl^−1) in their drinking water. All antibiotics were obtained from Sigma Aldrich. Adult male outbred Swiss-Webster mice (a widely used mouse strain in germ-free experiments) served as recipients for fecal transplants and were housed in sterile isolators (Park Biosciences). For fecal transplantation experiments, 200 mg of stool (from mouse pellets or human swabs) was resuspended in 5 ml of PBS under anaerobic conditions, vortexed for 3 minutes and allowed to settle by gravity for 2 minutes. Recipient mice were gavaged with 200 μl of the supernatant and maintained on standard NC diet and water throughout the experiment.
The following commercially available NAS were dissolved in mice drinking water to obtain a 10% solution: Sucrazit (5% saccharin, 95% glucose), Sucralite (5% Sucralose), Sweet'n Low Gold (4% Aspartame). 10% glucose (J.T. Baker) and 10% sucrose (Sigma Aldrich) solutions were used for controls. […] For experiments conducted with pure saccharin (Sigma Aldrich) a 0.1 mgml^−1 solution was used in order to meet with FDA defined ADI for saccharin in humans (5 mgkg^−1), according to the following calculation:
Mice were fasted for 6 hours during the light phase, with free access to water. In all groups of mice where the drinking regime was other than water, it was substituted for water for the period of the fasting and glucose or insulin tolerance test. Blood from the tail vein was used to measure glucose levels using a glucometer (Bayer) immediately before and 15, 30, 60, 90 and 120 minutes after oral feeding with 40 mg glucose (J.T. Baker) or intra-peritoneal injection with 0.1 Ukg^−1 Insulin (Biological Industries). Plasma fasting insulin levels were measured in sera collected immediately before the start of GTT using ELISA (Ultra Sensitive Mouse Insulin ELISA Kit, Crystal Chem).

[2] = test system: microbiota of germ-free recipient mice
Text: as §3, §2, §1

[3] = GF recipients of D7 vs D1 microbiome from human responder
[4] = GF recipients of saccharin-enriched culture, day 6, level 2

## O=C1NS(=O)(=O)c2ccccc21 [saccharin]
Fecal microbiota; mice consuming pure saccharin and HFD
  microbiota composition (dysbiosis): dysbiosis was observed
Fecal microbiota; saccharin-consuming mice vs all control groups, week 11, FDR corrected p<0.05 (FIG. 21: commercial saccharin)
  operational taxonomic units (OTUs) significantly altered in abundance: > 40
[1]; control 22%
  Firmicutes relative abundance in stool culture: 6%
[1]; control 70%
  Bacteroidetes phyla relative abundance in stool culture: 89%
mice; C57Bl/6 mice on HFD, 0.1 mgml^−1 pure saccharin in drinking water vs water, from 5 weeks, p<0.0002
  glucose tolerance (OGTT): impaired glucose tolerance
mice; HFD-fed outbred Swiss Webster mice, 0.1 mgml^−1 pure saccharin, 5 weeks, p<0.03
  glucose tolerance (OGTT): significant glucose intolerance
[2]; [3]
  decrease in Candidatus Arthromitus: ~10 fold
  relative increase of Bacteroides fragilis: 20 fold
  relative increase of Weissella ciboria: 20 fold
[2]; [4]
  Saccharin Enriched D6: p_Bacteroidetes: 0.611
  Saccharin Enriched D6: p_Firmicutes: 0.3649
  Saccharin Enriched D6: p_Tenericutes: 0.02291
[2]; GF recipients, day 6, level 3
  Saccharin Enriched D6: p_Bacteroidetes; c_Bacteroidia: 0.6108
  Saccharin Enriched D6: p_Firmicutes; c_Bacilli: 0.3122
  Saccharin Enriched D6: p_Firmicutes; c_Clostridia: 0.05266
  Saccharin Enriched D6: p_Proteobacteria; c_Gammaproteobacteria: 0.0001278
  Saccharin Enriched D6: p_Tenericutes; c_Mollicutes: 0.02291
[2]; GF recipients, day 6, level 4
  Saccharin Enriched D6: c_Bacilli; o_Lactobacillales: 0.3116
  Saccharin Enriched D6: c_Bacteroidia; o_Bacteroidales: 0.6108
  Saccharin Enriched D6: c_Clostridia; o_Clostridiales: 0.05266
  Saccharin Enriched D6: c_Gammaproteobacteria; o_Enterobacteriales: 0.0001248
  Saccharin Enriched D6: c_Mollicutes; o_Anaeroplasmatales: 0.02291
[2]; GF recipients, day 6, level 5
  Saccharin Enriched D6: o_Anaeroplasmatales; f_Anaeroplasmataceae: 0.02291
  Saccharin Enriched D6: o_Bacteroidales; f_Bacteroidaceae: 0.467
  Saccharin Enriched D6: o_Bacteroidales; f_Porphyromonadaceae: 0.1379
  Saccharin Enriched D6: o_Bacteroidales; f_S24-7: 7.066E−05
  Saccharin Enriched D6: o_Bacteroidales; f_[Odoribacteraceae]: 0.004319
  Saccharin Enriched D6: o_Clostridiales; f_: 0.04275
  Saccharin Enriched D6: o_Clostridiales; f_Clostridiaceae: 0.005131
  Saccharin Enriched D6: o_Clostridiales; f_Dehalobacteriaceae: 0.0008389
  Saccharin Enriched D6: o_Clostridiales; f_Ruminococcaceae: 0.003365
  Saccharin Enriched D6: o_Enterobacteriales; f_Enterobacteriaceae: 0.0001248
  Saccharin Enriched D6: o_Lactobacillales; f_Lactobacillaceae: 0.3087
  Saccharin Enriched D6: o_Lactobacillales; f_Streptococcaceae: 0.0009772
[2]; GF recipients, day 6, level 6
  Saccharin Enriched D6: f_Anaeroplasmataceae; g_Anaeroplasma: 0.02291
  Saccharin Enriched D6: f_Bacteroidaceae; g_Bacteroides: 0.467
  Saccharin Enriched D6: f_Clostridiaceae; g_Candidatus Arthromitus: 0.005047
  Saccharin Enriched D6: f_Clostridiaceae; g_Clostridium: 4.209E−05
  Saccharin Enriched D6: f_Dehalobacteriaceae; g_Dehalobacterium: 0.0008389
  Saccharin Enriched D6: f_Enterobacteriaceae; g_: 0.0001248
  Saccharin Enriched D6: f_Lachnospiraceae; g_[Ruminococcus]: 7.818E−05
  Saccharin Enriched D6: f_Lactobacillaceae; g_Lactobacillus: 0.3087
  Saccharin Enriched D6: f_Porphyromonadaceae; g_Parabacteroides: 0.1379
  Saccharin Enriched D6: f_Ruminococcaceae; g_: 0.003112
  Saccharin Enriched D6: f_S24-7; g_: 7.066E−05
  Saccharin Enriched D6: f_Streptococcaceae; g_Lactococcus: 0.0008509
  Saccharin Enriched D6: f_[Odoribacteraceae]; g_Odoribacter: 0.004319
  Saccharin Enriched D6: o_Clostridiales; f_; g_: 0.04275
